{"source": "patent US20250017964A1", "about": "“ENGINEERING OR INDUCING PDGF AND/OR PDGFR SIGNALING TO ENHANCE NK CELL THERAPY” (City of Hope, priority 2021, published 2025)", "key": {"[1]": {"test_system": "PDGFRβ expression in human NK cells", "assay": "Cytokine-induced PDGFRβ expression in purified human NK cells, flow cytometry", "format": "cell-based", "settings": "24 h", "source_text": "Data shown are the percentages of PDGFRβ^+ NK cells among total NK cells (n=5). […] Bar=20 μm. […] Data represent three independent experiments. Data shown are means SD.\n(§1) FIGS. 7A-7F. […] Data shown are representative histograms and mean fluorescence intensity (MFI) of PDGFRα. […] Expression levels of PDGFRβ were examined by flow cytometry (n=6). […] Data shown are the percentages of PDGFRβ^+ NK cells among total NK cells (n=5). […] Data shown are representative histograms with MFI of PDGFRβ expression. (F) Expression levels of PDGFRβ on NK cells from IL-15 transgenic (Tg) mice were determined by flow cytometry. Data shown are representative histograms. Data represent three independent experiments.\nNK cells were cultured in RPMI 1640 with 10% heat-inactivated FBS (Gibco) at 37° C. in a 5% CO2 humidified incubator. For NK cell transduction, PDGFRB cDNA ORF clone (Cat: HG10514-G) was purchased from Sino Biological and cloned into pCDH-CMV-MCS-EF1-copGFP lentivirus vector (System Biosciences). To produce lentivirus, we transfected the lentiviral transfer vector DNA, together with psPAX2 packaging (Addgene) and pMD2.G envelope plasmid DNA (Addgene), into HEK293T cells; using a polyethyenimine (PEI) transfection protocol (Polysciences). Concentrated lentivirus was added to primary NK cells cultured in RPMI 1640 medium supplemented with 10% FCS and 10 jig/mL polybrene with 2,000×g centrifugation for 2 h. Cells were cultured for an additional 48 h. […] The cells were then collected for flow cytometry analysis. For the inhibition assay, NK cells were pretreated with the indicated inhibitors for 1 h, washed twice with RPMI 1640. and then treated with IL-15 for 24 h.\nCells were stained with the indicated cell-surface markers and/or fixed/permeabilized using a Fixation/Permeabilization Kit (eBioscience). For intracellular staining of IFN-γ and PDGF-D, 5 μg/ml Brefeldin A (BioLegend) was added for 4 h before cell harvest. Intracellular staining of Ki67 was performed by fixing and permeabilizing with the Foxp3/Transcription Factor Staining Kit (eBioscience)."}, "PDGFRB promoter": {"test_system": "PDGFRB promoter", "assay": "ChIP-qPCR, binding of p65 to the PDGFRB promoter", "format": "cell-based, human", "settings": "IL-15-stimulated NK cells (1 h); not in resting NK cells", "experimental": "FIGS. 2A-2I. IL-15-induced PDGFRβ expression is mediated by PI3K/AKT signaling. (A-B) Primary NK cells were treated with IL-15 (10 ng/ml) for the indicated times. mRNA levels of PDGFRB at different time points (A) (n=3) or at 1 h (B) (n=10) were examined by qPCR. (C-D) Primary NK cells were pretreated with actinomycin D (ActD, 5., g/ml) (C) or cycloheximide (CHX, 20 μg/ml) (D) for 1 h, washed twice with RPMI-1640, and then treated with IL-15 (10 ng/ml) for 24 h. DMSO was used as a control. Expression levels of PDGFRβ were examined by flow cytometry (n=5). Data shown are representative histograms and percentage of inhibition with the equation: % inhibition=[…]. (E) Primary NK cells were pretreated with wortmannin (1 μM), afuresertib (10 μM), TPCA-1 (1 μM), rapamycin (10 μM), torin1 (10 μM), decernotinib (10 μM), C118-9 (10 μM), STAT5-IN-1 (10 μM), AZD6244 (10 μM), or CI-1040 (10 μM) for 1 h, washed twice with RPMI 1640, and then treated with IL-15 (10 ng/ml) for 24 h. DMSO was used as control. Data shown are % of inhibition (n=5). The mean value of the inhibitory rate is shown. […] (G-I) Binding of p65 to the PDGFRB promoter in IL-15-treated NK cells (G) or resting NK cells (H) as determined by ChIP-qPCR or PCR (I) (n=3). […]\nPrimary NK cells were treated with IL-15 for 1 h. […] The enriched chromatin was analyzed by qPCR using the following primers: […]"}, "murine NK cells": {"test_system": "murine NK cells", "assay": "PDGFRβ expression in murine splenic NK cells, flow cytometry", "format": "cell-based, mouse", "experimental": "as §1\nMouse NK cells were isolated from the spleen of C57BL/6J or IL-15 transgenic mice, using the EasySep Mouse NK Cell Isolation Kit ([…] Technologies) as previously described (11).\nCells were stained with the indicated cell-surface markers and/or fixed/permeabilized using a Fixation/Permeabilization Kit (eBioscience). For intracellular staining of IFN-γ and PDGF-D, 5 μg/ml Brefeldin A (BioLegend) was added for 4 h before cell harvest. Intracellular staining of Ki67 was performed by fixing and permeabilizing with the Foxp3/Transcription Factor Staining Kit (eBioscience). […] Data were analyzed using NovoExpress software (Agilent Technologies)."}}, "data": [{"substance": "IL-15: recombinant human IL-15 (200-15); recombinant murine IL-15 in the mouse NK cell test", "values": [{"measurement": "PDGFRβ expression", "setting": "[1]; cytokine 10 ng/ml, IL-15 effect dose- and time-dependent", "result": "induced robust expression of PDGFRβ"}, {"measurement": "PDGFRβ expression in CD56^bright NK cells", "setting": "[1]; sorted CD56^bright NK cells, IL-15 10 ng/ml", "result": "not CD56^bright NK cells"}, {"measurement": "PDGFRβ expression in CD56^dim NK cells", "setting": "[1]; sorted CD56^dim NK cells, IL-15 10 ng/ml", "result": "induced PDGFRβ expression only in CD56^dim NK cells"}, {"measurement": "p65 associated with the PDGFRB promoter versus normal IgG control", "setting": "PDGFRB promoter", "result": "significantly higher levels"}, {"measurement": "PDGFRβ on NK cells from IL-15 transgenic mice", "setting": "murine NK cells; long-term IL-15 stimulation, IL-15 transgenic mice", "result": "could not detect any PDGFRβ"}, {"measurement": "PDGFRβ expression in murine NK cells", "setting": "murine NK cells; splenic NK cells of C57BL/6 mice, mouse cytokines 10 ng/ml, 24 h", "result": "did not express PDGFRβ"}]}]}
